Data on 3 compounds can be found in patent US6465442B2, “Topical application of muscarinic and opioid agents for treatment of tinnitus” (priority 1999, dated 2002).

SMILES strings stand for the structures. Where “and” joins values, the source holds several entries; their conditions need not be identical. Identical values can stand only once. Where only a bound is given, the exact number is not on record here.

Series [1] in a line: Otic solution administered by drops to the affected ear of patients complaining of tinnitus. The series is classed as in vivo, human. As for the experimental part:
A group of ten patients complaining of tinnitus were treated with an otic solution comprising about 500 μg/30 ml of neostigmine. One to two drops of the solution was administered to the affected ear about once every 4-6 hours. The patients reported relief within about 20 minutes after initial administration of the otic composition.

Assay in series [2]: as above
In kind it is in vivo, human. To be noted: every 4-6 hrs.

The mark [3] stands for this setting: individual tinnitus patients, neostigmine 500 μg/30 cc otic solution, every 4-6 hrs.
The mark [4] stands for this setting: individual tinnitus patient, morphine 2 mg/30 cc otic solution.
Setting [5] is: individual tinnitus patients, stadol 1 mg/30 cc otic solution.

On to `CN(C)C(=O)Oc1cccc([N+](C)(C)C)c1` [neostigmine], for which, in series [1] (group of ten patients, about 500 μg/30 ml otic solution, one to two drops about once every 4-6 hours), the “relief of the tinnitus symptoms reported by patients” value is reported as “significant relief”. Also, the “time to relief after initial administration of the otic composition” value in series [1] (group of ten patients, about 500 μg/30 ml otic solution, one to two drops to affected ear) was at most 20 min. Further, in series [1] (setting [3]), the “Results (improvement)” value is 90% and 80% (4×) and 70%; the “Side Effects” value is listed as “None”.

With `CN1CC[C@]23c4c5ccc(O)c4O[C@H]2[C@@H](O)C=C[C@H]3[C@H]1C5` [morphine], in series [2] (setting [4]), the “Results (improvement)” value amounted to 60% and the “Side Effects” value was “None”.

For the compound `Oc1ccc2c(c1)[C@@]13CCCC[C@@]1(O)[C@@H](C2)N(CC1CCC1)CC3` [stadol, butorphanol], in series [2] (setting [5]), the “Results (improvement)” value was 60% and 80% (2×); the “Side Effects” value is listed as “None”.
